Laboratory results: patent US6620593B1, “Method for safety evaluation of chemical compound using recombinant yeast expressing human cytochrome P450” (Sumitomo Chemical Company, Limited, priority 1993, dated 2003)
Where two headings read alike, the source gives them in different places.

Columns and labels:
human P450 3A4 = assay: Metabolism (hydroxylation) of substrates using transformed yeast cells or microsomal fractions expressing human P450 3A4
Procedure: (§1) Then 2 ml of dichloromethane was added.

human P450 2C19 = human P450 2C19 (Homo sapiens, UniProt P33261); assay: Metabolism (hydroxylation) of substrates using transformed yeast cells or microsomal fractions expressing human P450 2C19
Procedure: as §1

human P450 2D6 = assay: Metabolism (hydroxylation) of substrates using transformed yeast cells or microsomal fractions expressing human P450 2D6
Procedure: as §1

human P450 2A6 = assay: Metabolism (hydroxylation) of substrates using transformed yeast cells or microsomal fractions expressing human P450 2A6
Procedure: as §1

human P450 1A2 = target: T1, human P450 1A2 (Homo sapiens, UniProt P05177); assay: Metabolism (hydroxylation) of substrates using transformed yeast cells or their microsomal fractions expressing human P450 1A2 and yeast NADPH-P450 reductase
T1 sequence (P05177 1-516): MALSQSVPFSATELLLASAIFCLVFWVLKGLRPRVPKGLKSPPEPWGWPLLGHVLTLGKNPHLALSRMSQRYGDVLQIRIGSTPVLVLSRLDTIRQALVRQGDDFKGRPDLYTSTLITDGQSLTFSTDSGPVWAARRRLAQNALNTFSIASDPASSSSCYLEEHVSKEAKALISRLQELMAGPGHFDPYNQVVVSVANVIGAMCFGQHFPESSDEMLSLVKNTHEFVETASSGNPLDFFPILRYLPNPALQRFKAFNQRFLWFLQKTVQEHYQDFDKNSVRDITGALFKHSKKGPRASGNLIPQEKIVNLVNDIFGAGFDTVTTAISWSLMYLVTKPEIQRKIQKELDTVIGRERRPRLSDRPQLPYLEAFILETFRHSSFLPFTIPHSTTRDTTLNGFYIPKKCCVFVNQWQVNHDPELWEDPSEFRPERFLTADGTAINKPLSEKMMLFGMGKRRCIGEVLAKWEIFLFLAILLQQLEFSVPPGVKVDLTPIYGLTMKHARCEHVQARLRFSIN
Procedure: as §1

human P450 2C8 = assay: Metabolism (hydroxylation) of substrates using transformed yeast cells or microsomal fractions expressing human P450 2C8
Procedure: as §1

[1] = system: other human P450 molecular species
human P450 2C18 = target: T2, human P450 2C18 (Homo sapiens, UniProt P33260); assay: Metabolism (hydroxylation) of substrates using transformed yeast cells or microsomal fractions expressing human P450 2C18
T2 sequence (P33260 26-490): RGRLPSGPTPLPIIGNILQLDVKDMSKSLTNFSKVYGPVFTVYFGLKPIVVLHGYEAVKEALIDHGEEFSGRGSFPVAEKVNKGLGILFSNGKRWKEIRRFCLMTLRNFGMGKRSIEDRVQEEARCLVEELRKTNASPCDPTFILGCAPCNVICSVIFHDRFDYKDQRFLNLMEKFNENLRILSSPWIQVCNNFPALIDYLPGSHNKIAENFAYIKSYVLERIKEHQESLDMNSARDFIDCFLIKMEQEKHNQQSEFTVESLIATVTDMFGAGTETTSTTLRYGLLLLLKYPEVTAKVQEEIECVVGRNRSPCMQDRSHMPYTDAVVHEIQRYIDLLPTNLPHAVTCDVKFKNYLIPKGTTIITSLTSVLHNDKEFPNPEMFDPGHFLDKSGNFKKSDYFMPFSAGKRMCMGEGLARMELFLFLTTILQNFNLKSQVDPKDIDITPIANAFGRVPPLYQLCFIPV
Procedure: as §1

human P450 1A1 [2] = target: T3, human P450 1A1 (Homo sapiens, UniProt P04798); details: microsomes
T3 sequence (P04798 1-512): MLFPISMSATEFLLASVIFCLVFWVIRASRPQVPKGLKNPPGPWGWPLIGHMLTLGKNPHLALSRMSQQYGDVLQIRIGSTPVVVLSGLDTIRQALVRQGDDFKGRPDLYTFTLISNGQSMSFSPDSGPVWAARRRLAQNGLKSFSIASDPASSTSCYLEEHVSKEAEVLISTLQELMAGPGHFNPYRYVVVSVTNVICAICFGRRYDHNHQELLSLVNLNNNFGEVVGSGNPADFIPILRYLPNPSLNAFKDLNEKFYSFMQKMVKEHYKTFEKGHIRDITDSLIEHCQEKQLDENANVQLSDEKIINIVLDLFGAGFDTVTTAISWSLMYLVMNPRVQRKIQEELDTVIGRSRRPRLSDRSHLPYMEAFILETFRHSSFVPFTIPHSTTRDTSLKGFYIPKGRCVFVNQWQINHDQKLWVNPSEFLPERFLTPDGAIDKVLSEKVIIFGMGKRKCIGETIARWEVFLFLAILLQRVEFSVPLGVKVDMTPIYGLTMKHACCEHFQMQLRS

[3] = system: mixed microsomal fractions of yeasts expressing human cytochrome P450 (3A4, 2C9, 2C8, 2C18, 2C19, 1A2, 2E1, 1A1, 2B6, 2D6); assay: Metabolism of debrisoquine using mixture of microsomal fractions of transformed yeast cells; assay type: in vitro ADME; details: 37° C., 30 min; HPLC
Procedure: The mixing molar ratio of the human cytochrome P450 molecular species were as follows: [table] […] After the mixture was incubated at 37° C. for 30 min, 50 μl of 60% perchlorate was added to the solution to stop the reaction.

human P450 2B6 = target: T4, human P450 2B6 (Homo sapiens, UniProt P20813); assay: Metabolism (hydroxylation) of substrates using transformed yeast cells or microsomal fractions expressing human P450 2B6
T4 sequence (P20813 1-491): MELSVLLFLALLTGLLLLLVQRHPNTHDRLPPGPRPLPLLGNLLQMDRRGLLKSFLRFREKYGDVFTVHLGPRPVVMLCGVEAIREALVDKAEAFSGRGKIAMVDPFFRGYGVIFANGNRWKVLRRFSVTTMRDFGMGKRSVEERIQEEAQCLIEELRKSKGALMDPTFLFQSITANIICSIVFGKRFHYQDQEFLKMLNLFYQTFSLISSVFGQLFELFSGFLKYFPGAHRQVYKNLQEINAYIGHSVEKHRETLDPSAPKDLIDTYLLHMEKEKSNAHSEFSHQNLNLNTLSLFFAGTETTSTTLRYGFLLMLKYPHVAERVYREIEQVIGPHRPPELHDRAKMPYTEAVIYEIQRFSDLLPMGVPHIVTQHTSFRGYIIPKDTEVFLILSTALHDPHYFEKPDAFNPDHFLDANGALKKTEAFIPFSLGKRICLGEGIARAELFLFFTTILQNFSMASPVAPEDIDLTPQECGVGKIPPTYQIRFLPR
Procedure: as §1

human P450 2C9 = human P450 2C9 (Homo sapiens, UniProt P11712); assay: Metabolism (hydroxylation) of substrates using transformed yeast cells or microsomal fractions expressing human P450 2C9
Procedure: as §1

human P450 2E1 = human P450 2E1 (Homo sapiens, UniProt P05181); assay: Metabolism (hydroxylation) of substrates using transformed yeast cells or microsomal fractions expressing human P450 2E1
Procedure: as §1

human P450 1A1 [4] = target: T3, human P450 1A1; assay: Metabolism (hydroxylation) of substrates using transformed yeast cells or microsomal fractions expressing human P450 1A1; details: Table 1; recombinant yeast cells or microsomal fractions; conditions per substrate
[5] = system: mixed system B (eleven human P450 molecular species); assay: Metabolism of S-mephenytoin using mixture of microsomal fractions of transformed yeast cells (mixing system B); assay type: in vitro ADME; details: 37° C., 30 min; HPLC
Procedure: The mixing ratio of the human cytochrome P450 molecular species was the same as that of the mixing system B as described above. […] After the mixture was incubated at 37° C. for 30 min, 250 μl of methanol was added to the solution to stop the reaction.

[6] = system: other human P450 molecular species; assay: Metabolism of substrates using yeast cells or microsomal fractions expressing the other human P450 molecular species (those not given); details: the remaining of the eleven human P450 species
[7] = Table 1, recombinant yeast cells or microsomal fractions, conditions per substrate

Chain of human P450 2E1 (P05181 whole entry): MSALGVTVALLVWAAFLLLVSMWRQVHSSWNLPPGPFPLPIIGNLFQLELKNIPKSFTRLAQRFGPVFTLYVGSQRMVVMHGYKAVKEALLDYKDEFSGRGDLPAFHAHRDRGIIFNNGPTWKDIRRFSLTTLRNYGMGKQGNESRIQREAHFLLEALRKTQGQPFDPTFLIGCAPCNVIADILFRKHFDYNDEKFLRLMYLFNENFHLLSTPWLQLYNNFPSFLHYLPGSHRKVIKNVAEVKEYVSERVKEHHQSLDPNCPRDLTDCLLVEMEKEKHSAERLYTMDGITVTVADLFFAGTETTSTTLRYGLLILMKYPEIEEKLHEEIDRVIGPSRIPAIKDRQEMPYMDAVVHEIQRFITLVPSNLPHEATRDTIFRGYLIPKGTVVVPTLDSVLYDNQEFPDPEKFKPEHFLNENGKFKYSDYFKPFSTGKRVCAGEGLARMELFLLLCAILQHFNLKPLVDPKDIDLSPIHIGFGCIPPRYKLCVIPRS
Chain of human P450 2C19 (P33261 whole entry): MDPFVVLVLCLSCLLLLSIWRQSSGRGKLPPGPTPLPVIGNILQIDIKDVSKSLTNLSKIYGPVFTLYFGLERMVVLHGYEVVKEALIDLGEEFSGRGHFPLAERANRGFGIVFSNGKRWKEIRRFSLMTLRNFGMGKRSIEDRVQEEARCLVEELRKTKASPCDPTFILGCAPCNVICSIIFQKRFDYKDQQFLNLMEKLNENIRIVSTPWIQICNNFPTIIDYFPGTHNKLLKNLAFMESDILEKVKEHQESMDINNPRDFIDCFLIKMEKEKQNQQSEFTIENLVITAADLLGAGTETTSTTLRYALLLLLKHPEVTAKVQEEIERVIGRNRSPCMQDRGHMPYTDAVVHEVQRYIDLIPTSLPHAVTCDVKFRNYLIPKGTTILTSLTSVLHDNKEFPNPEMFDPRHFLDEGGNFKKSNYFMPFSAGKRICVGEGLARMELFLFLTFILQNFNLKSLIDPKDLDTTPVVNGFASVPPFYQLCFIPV
Chain of human P450 2C9 (P11712 whole entry): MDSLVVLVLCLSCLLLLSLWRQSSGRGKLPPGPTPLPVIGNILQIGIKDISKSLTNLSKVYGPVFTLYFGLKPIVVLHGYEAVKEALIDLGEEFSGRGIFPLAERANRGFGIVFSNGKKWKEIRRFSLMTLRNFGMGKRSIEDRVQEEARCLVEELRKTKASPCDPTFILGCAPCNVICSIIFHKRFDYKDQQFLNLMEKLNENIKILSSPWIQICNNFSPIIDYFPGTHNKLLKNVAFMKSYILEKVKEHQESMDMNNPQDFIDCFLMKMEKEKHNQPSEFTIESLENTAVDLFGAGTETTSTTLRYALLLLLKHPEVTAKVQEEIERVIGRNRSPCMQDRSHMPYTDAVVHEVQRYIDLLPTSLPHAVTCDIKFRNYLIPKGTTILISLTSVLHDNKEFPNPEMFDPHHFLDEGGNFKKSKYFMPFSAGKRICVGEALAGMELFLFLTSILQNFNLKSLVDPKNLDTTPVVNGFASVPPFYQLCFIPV

Row | SMILES | Hydroxylation activity, human P450 3A4 (human P450 3A4; microsomes) | Hydroxylation activity, human P450 2D6 (human P450 2D6; microsomes) | Hydroxylation activity, human P450 2A6 (human P450 2A6; microsomes) | Hydroxylation activity, human P450 2C8 (human P450 2C8; microsomes) | Hydroxylated metabolite / hydroxylation activity with yeast expressing other human P450 than those named [1] | Hydroxylation activity, human P450 1A2 (human P450 1A2; [7]) | Hydroxylation activity, human P450 2C18 (human P450 2C18; [7]) | Hydroxylation activity, human P450 2B6 (human P450 2B6; [7]) | Hydroxylation activity, human P450 1A1 (human P450 1A1 [4]) | Hydroxylation activity, human P450 2E1 (human P450 2E1; [7]) | other results
1 | N=C(N)N1CCc2ccccc2C1 [Debrisoquine] | − | + + + | − | − | no activity |  |  |  |  |  | Hydroxylation activity, human P450 2C19 (human P450 2C19; microsomes): −; Hydroxylation activity, human P450 1A2 (human P450 1A2; microsomes): −; Hydroxylation activity, human P450 2C18 (human P450 2C18; microsomes): −; Hydroxylation activity, human P450 1A1 (human P450 1A1 [2]): + +; Metabolites compared with those reported for human liver microsome (Kronbach) [3]: well coincided; Hydroxylation activity, human P450 2B6 (human P450 2B6; microsomes): −; Hydroxylation activity, human P450 2C9 (human P450 2C9; microsomes): −; Hydroxylation activity, human P450 2E1 (human P450 2E1; microsomes): −
2 | CC[C@@]1(c2ccccc2)NC(=O)N(C)C1=O [S-Mephenytoin] | − | − | − | − | no activity | − | − | − | − | − | Hydroxylation activity, human P450 2C9 (human P450 2C9; [7]): −; Metabolites compared with those reported for human liver microsome (Goldstein) [5]: well coincided
3 | C[C@]12CC[C@H]3[C@@H](CCC4=CC(=O)CC[C@@]43C)[C@@H]1CC[C@@H]2O [Testosterone] |  |  |  |  |  | − | − | − | + | − | Metabolising (hydroxylation / O-deethylation) activity in words, P450 3A4 (human P450 3A4; 7-ethoxycoumarin 0.5 mM, testosterone 0.05 mM, chlorzoxazone 0.5 mM or 250 μM, acetanilide 5 mM): detected; Hydroxylation activity, human P450 3A4 (human P450 3A4; [7]): + + +; Hydroxylated metabolite / hydroxylation activity with yeast expressing other human P450 than those named [6]: not detected; Hydroxylation activity, human P450 2C19 (human P450 2C19; [7]): −; Hydroxylation activity, human P450 2D6 (human P450 2D6; [7]): −; Hydroxylation activity, human P450 2A6 (human P450 2A6; [7]): −; Metabolising (hydroxylation / O-deethylation) activity in words, P450 2C8 (human P450 2C8; 7-ethoxycoumarin 0.5 mM, tolbutamide 1.0 mM, testosterone 0.05 mM, chlorzoxazone, acetanilide 5 mM): detected; Hydroxylation activity, human P450 2C8 (human P450 2C8; [7]): +
